ChEMBL document CHEMBL5715956, “Selective Targeting of Bromodomains of the Bromodomain-PHD Fingers Family Impairs Osteoclast Differentiation” (ACS Chem Biol, 2017)

What was measured:
[1] = target: T1, Bromodomain and PHD finger-containing protein 3 (Homo sapiens) (UniProt Q9ULD4); assay: Binding affinity to BRPF3 (unknown origin) assessed as change in entropy at 12 uM by Isothermal titration calorimetry
T1 sequence (whole entry): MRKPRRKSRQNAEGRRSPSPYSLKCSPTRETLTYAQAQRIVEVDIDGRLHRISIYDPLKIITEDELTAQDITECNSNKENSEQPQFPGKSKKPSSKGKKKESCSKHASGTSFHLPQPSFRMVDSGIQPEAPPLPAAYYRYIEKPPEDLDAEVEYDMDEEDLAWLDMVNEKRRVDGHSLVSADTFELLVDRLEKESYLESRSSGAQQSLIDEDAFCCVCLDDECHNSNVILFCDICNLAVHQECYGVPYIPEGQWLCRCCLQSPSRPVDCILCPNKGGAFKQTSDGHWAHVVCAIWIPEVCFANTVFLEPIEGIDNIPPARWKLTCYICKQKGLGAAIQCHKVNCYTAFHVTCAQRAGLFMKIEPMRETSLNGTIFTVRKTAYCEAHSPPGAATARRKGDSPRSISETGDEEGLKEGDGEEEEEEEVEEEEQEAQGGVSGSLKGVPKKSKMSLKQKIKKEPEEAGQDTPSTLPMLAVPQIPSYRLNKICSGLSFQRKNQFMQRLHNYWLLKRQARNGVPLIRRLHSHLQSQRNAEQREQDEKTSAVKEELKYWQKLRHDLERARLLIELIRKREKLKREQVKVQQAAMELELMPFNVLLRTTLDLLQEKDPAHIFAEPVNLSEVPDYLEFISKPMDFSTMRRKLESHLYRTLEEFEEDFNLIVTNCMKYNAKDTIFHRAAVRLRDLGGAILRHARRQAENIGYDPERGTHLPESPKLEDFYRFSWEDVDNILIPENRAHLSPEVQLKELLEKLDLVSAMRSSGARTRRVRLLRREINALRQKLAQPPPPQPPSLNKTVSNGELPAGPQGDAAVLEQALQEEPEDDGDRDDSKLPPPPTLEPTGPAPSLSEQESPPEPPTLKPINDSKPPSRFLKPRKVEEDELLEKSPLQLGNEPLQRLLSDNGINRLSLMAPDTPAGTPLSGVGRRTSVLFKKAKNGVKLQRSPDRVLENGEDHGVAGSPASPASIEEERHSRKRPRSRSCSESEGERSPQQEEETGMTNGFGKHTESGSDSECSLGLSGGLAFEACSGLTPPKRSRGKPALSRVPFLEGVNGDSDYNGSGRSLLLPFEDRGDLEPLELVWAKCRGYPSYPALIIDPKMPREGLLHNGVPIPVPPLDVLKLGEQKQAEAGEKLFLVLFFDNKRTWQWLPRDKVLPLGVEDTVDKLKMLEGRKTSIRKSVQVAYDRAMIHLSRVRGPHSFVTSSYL

[2] = target: Histamine H1 receptor (Homo sapiens) (UniProt P35367); assay: Binding affinity to H1 receptor (unknown origin) assessed as specific binding at 10 uM relative to control
[3] = target: Bromodomain-containing protein 4 (Homo sapiens) (UniProt O60885); assay: Binding affinity to BRD4 BD1 (unknown origin) assessed as change in enthalpy at 14 uM by Isothermal titration calorimetry
[4] = target: Bromodomain-containing protein 2 (Homo sapiens) (UniProt P25440); conditions: dose 10.0 µM
[5] = target: Protein polybromo-1 (Homo sapiens) (UniProt Q86U86); conditions: dose 10.0 µM
[6] = target: T2, Bromodomain-containing protein 1 (Homo sapiens) (UniProt O95696); assay: Binding affinity to BRPF2 (unknown origin) assessed as association constant at 12 uM by Isothermal titration calorimetry
T2 sequence (whole entry): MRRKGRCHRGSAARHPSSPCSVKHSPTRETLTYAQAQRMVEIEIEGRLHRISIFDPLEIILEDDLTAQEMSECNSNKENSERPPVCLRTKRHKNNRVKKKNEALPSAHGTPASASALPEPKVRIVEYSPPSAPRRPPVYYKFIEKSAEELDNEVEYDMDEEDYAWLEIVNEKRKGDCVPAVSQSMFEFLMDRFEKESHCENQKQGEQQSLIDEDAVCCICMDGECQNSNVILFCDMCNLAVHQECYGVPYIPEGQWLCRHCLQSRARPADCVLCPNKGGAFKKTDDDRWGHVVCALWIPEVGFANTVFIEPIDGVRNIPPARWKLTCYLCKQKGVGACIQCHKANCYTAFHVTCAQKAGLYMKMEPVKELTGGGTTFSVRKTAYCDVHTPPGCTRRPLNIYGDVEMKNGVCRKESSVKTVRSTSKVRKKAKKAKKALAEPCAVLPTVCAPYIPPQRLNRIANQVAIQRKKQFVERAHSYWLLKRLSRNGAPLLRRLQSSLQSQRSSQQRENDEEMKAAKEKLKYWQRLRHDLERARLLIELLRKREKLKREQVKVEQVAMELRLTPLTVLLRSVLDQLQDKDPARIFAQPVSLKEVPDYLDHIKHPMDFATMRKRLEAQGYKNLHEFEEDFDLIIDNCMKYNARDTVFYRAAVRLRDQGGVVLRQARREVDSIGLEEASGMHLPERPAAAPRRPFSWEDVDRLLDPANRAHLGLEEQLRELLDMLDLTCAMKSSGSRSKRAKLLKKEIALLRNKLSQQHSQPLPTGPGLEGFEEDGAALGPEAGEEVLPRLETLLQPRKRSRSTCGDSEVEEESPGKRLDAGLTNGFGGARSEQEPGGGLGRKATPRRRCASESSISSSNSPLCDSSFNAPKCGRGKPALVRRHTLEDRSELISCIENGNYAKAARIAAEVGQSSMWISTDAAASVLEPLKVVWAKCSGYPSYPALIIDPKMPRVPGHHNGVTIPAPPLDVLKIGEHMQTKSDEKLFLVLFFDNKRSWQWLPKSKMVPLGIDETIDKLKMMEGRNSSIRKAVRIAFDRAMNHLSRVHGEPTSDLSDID

[7] = target: Bromodomain-containing protein 4 (Homo sapiens) (UniProt O60885); assay: Binding affinity to BRD4 BD1 (unknown origin) assessed as change in entropy at 14 uM by Isothermal titration calorimetry
[8] = target: 5-hydroxytryptamine receptor 5A (Homo sapiens) (UniProt P47898); assay: Inhibition of 5HT5A (unknown origin) at 10 uM relative to control
[9] = target: Bromodomain-containing protein 7 (Homo sapiens) (UniProt Q9NPI1); conditions: dose 10.0 µM
[10] = target: Bromodomain-containing protein 4 (Homo sapiens) (UniProt O60885); conditions: dose 10.0 µM
[11] = target: Bromodomain testis-specific protein (Homo sapiens) (UniProt Q58F21); conditions: dose 10.0 µM
[12] = target: Bromodomain and PHD finger-containing protein 3 (Homo sapiens, UniProt Q9ULD4); assay: Inhibition of BRPF3 (unknown origin) incubated for 60 mins by alphascreen competitive assay
[13] = target: Beta-1 adrenergic receptor (Homo sapiens) (UniProt P08588); assay: Inhibition of Beta1 (unknown origin) at 10 uM relative to control
Chain of Beta-1 adrenergic receptor (Homo sapiens) (P08588 whole entry, looked up): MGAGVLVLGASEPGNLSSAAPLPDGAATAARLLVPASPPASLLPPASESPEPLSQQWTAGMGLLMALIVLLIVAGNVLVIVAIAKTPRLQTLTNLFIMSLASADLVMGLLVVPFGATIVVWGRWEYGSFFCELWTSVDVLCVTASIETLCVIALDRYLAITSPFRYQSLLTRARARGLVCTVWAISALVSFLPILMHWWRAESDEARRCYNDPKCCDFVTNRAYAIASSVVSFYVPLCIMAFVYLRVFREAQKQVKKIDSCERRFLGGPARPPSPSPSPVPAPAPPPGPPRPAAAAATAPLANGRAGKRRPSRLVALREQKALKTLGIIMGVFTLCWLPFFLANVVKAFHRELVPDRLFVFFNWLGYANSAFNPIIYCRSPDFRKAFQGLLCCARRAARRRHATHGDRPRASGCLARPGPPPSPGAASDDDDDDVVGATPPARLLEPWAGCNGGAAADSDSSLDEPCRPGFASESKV

Chain of Protein polybromo-1 (Homo sapiens) (Q86U86 whole entry): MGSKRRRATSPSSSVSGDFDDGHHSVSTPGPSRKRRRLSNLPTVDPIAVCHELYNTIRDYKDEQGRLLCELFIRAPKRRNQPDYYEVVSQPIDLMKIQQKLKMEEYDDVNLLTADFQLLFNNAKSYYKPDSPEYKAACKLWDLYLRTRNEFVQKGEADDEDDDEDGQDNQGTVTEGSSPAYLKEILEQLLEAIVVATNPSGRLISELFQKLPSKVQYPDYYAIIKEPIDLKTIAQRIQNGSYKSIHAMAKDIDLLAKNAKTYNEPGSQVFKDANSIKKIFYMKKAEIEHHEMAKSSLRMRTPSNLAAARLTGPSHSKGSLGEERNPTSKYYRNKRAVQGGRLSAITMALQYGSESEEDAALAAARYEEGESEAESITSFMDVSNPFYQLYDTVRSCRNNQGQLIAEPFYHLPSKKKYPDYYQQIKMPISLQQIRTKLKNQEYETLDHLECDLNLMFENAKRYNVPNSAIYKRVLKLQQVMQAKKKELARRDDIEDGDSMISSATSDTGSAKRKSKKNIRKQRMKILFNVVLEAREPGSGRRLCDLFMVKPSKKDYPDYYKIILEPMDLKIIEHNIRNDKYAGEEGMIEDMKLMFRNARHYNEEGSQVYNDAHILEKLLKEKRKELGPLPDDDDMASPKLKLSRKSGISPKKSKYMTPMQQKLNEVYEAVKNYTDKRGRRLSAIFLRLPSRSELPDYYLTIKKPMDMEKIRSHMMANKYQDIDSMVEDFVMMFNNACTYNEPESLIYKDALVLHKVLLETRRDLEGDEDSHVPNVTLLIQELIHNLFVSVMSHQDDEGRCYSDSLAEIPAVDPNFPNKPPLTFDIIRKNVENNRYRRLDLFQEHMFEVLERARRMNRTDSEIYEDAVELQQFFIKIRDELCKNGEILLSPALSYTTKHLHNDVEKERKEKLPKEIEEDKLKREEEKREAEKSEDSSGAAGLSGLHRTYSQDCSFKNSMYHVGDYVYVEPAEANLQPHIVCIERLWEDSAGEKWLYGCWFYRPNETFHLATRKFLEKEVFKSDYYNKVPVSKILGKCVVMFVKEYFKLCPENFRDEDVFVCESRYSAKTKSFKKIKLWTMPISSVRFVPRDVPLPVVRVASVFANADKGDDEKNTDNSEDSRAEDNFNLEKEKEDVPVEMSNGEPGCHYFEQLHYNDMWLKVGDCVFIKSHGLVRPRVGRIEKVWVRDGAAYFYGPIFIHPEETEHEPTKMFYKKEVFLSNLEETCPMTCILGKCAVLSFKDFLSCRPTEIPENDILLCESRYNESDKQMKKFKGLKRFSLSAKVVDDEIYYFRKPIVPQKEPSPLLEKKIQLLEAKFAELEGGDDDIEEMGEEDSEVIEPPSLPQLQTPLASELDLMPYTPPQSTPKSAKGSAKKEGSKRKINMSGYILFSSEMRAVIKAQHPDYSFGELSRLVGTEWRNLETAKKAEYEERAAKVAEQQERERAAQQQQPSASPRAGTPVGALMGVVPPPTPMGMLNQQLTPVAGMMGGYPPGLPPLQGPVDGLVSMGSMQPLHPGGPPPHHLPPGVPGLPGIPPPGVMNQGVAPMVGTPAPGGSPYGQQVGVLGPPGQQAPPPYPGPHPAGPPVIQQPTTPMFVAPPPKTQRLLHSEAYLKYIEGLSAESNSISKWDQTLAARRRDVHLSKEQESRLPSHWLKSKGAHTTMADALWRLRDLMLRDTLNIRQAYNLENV
Chain of Bromodomain-containing protein 7 (Homo sapiens) (Q9NPI1 whole entry): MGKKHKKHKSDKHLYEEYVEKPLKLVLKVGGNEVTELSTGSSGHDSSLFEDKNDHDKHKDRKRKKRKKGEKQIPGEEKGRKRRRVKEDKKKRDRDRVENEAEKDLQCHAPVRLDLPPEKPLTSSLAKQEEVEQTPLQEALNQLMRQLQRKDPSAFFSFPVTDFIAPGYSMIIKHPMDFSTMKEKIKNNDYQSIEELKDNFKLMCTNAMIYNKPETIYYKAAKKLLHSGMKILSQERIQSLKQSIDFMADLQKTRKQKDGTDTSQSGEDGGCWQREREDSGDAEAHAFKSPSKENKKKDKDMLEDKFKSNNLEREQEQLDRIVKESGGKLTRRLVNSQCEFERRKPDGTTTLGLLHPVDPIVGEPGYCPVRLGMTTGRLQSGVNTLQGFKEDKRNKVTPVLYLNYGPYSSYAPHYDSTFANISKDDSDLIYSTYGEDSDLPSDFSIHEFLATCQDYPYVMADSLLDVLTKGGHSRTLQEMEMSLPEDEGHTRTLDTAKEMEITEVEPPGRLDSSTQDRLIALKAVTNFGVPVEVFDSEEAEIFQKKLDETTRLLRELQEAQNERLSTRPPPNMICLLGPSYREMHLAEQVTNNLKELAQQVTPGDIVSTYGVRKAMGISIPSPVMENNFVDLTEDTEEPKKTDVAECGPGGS
Chain of Histamine H1 receptor (Homo sapiens) (P35367 whole entry): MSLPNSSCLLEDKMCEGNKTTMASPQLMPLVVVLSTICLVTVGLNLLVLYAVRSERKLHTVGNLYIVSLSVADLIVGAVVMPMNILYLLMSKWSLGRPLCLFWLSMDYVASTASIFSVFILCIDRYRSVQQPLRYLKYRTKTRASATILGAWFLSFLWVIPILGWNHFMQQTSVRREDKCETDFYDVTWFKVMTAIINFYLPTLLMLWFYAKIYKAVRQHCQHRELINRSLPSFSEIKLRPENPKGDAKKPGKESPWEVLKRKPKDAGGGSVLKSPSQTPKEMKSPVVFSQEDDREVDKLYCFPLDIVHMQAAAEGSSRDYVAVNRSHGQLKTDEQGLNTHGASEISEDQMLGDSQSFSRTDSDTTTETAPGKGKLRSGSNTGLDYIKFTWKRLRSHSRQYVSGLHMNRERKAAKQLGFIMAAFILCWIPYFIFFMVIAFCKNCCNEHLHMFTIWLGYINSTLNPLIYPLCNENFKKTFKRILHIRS
Chain of Bromodomain-containing protein 2 (Homo sapiens) (P25440 whole entry, looked up): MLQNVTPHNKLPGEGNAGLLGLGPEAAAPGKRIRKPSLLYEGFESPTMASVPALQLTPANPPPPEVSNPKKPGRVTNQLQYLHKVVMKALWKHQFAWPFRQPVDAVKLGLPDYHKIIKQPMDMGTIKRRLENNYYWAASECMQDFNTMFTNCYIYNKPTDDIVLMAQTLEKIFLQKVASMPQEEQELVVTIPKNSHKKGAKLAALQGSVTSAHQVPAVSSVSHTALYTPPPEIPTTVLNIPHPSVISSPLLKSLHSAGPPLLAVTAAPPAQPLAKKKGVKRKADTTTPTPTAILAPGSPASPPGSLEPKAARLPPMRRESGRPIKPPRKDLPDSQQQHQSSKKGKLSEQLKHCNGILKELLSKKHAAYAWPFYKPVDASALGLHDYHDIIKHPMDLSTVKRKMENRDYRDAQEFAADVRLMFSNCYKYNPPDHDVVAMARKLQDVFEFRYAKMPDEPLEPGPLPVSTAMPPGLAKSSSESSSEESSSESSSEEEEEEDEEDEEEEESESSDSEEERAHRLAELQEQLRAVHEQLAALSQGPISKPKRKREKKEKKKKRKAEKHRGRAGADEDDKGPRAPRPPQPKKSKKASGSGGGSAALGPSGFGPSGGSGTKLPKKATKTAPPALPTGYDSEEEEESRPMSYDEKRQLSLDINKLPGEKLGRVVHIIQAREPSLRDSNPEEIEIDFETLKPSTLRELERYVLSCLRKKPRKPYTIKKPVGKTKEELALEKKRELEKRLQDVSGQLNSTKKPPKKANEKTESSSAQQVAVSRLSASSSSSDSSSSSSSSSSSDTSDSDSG
Chain of 5-hydroxytryptamine receptor 5A (Homo sapiens) (P47898 whole entry): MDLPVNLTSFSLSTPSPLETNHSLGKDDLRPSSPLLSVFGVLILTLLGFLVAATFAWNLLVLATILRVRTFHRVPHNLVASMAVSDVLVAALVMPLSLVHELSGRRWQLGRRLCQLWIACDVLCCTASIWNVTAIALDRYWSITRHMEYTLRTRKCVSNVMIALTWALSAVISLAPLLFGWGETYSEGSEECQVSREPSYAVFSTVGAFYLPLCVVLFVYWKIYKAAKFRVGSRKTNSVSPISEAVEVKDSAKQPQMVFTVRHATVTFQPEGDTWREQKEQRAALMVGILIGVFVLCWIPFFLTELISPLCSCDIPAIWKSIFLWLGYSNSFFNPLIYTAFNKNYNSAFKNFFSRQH

deltaS [1]: 0.002 kcal/mol/K
Activity [2]: 96.8%
deltaH [3]: -6.93 kcal/mol
ΔTm [4]: 0.7 °C
ΔTm [5]: 0.2 °C
Ka [6]: 1.98 10^6 M^-1
deltaS [7]: 0.001 kcal/mol/K
inhibition [8]: 22%
ΔTm [9]: 1.2 °C
ΔTm [10]: 0.6 °C
ΔTm [11]: 0.4 °C
IC50 [12]: Not Active
inhibition [13]: 11%
SMILES: COc1cc2c(cc1NS(=O)(=O)c1ccc(Br)cc1C)n(C)c(=O)n2C
